Data as given in ChEMBL document CHEMBL4043166, “Triazole tethered isatin-coumarin based molecular hybrids as novel antitubulin agents: Design, synthesis, biological investigation and docking studies” (Bioorg Med Chem Lett, 2017).
Activity calls are given as the source filed them. The rule behind the calls is not given here.

Legend:
[1] = system: HCT-116; experiment: Cytotoxicity against human HCT116 cells assessed as growth inhibition at 50 uM after 48 hrs by SRB assay relative to control; assay type: functional; conditions: HCT-116, 48 h, read-out: GI
[2] = system: COLO 205; experiment: Cytotoxicity against human COLO205 cells assessed as growth inhibition at 50 uM after 48 hrs by SRB assay relative to control; assay type: functional; conditions: COLO 205, 48 h, read-out: GI
[3] = system: THP-1; experiment: Cytotoxicity against human THP1 cells assessed as growth inhibition at 50 uM after 48 hrs by SRB assay relative to control; assay type: functional; conditions: THP-1, 48 h, read-out: GI
[4] = system: PC-3; experiment: Cytotoxicity against human PC3 cells assessed as growth inhibition at 50 uM after 48 hrs by SRB assay relative to control; assay type: functional; conditions: PC-3, 48 h, read-out: GI
[5] = system: THP-1; experiment: Cytotoxicity against human THP1 cells assessed as cell growth inhibition after 48 hrs by SRB assay; assay type: functional, cell-based; conditions: THP-1, 48 h
[6] = system: COLO 205; experiment: Cytotoxicity against human COLO205 cells assessed as cell growth inhibition after 48 hrs by SRB assay; assay type: functional, cell-based; conditions: COLO 205, 48 h
[7] = system: HCT-116; experiment: Cytotoxicity against human HCT116 cells assessed as cell growth inhibition after 48 hrs by SRB assay; assay type: functional, cell-based; conditions: HCT-116, 48 h
[8] = Inhibition of tubulin (unknown origin) polymerization; design: species or system Homo sapiens
[9] = species on record: Homo sapiens; experiment: Inhibition of tubulin polymerization in human THP1 cells assessed as disrupted microtubule formation at 1 uM after 48 hrs by confocal microscopic analysis; assay type: cell-based
[10] = species on record: Homo sapiens; experiment: Inhibition of tubulin polymerization in human THP1 cells assessed as disrupted microtubule formation at 5 uM after 48 hrs by confocal microscopic analysis; assay type: cell-based

Compound | inhibition of growth at 50 µM [1] [%] | inhibition of growth at 50 µM [2] [%] | inhibition of growth at 50 µM [3] [%] | inhibition of growth at 50 µM [4] [%] | IC50 [5] [µM] | IC50 [6] [µM] | IC50 [7] [µM] | IC50 [8] [µM] | inhibition [9] | inhibition [10]
O=C1C(=O)N(CCCCCn2cc(COc3cc(=O)oc4ccccc34)nn2)c2ccc(Br)cc21 | 43 | 39 | 52 | – | – | – | – | – | – | –
O=C1C(=O)N(CCCCn2cc(COc3cc(=O)oc4ccccc34)nn2)c2ccc(F)cc21 | 67 | 64 | 77 | 17 | 7.1 | 9.11 | 10.4 | – | – | –
O=C1C(=O)N(CCCCn2cc(COc3cc(=O)oc4ccccc34)nn2)c2ccccc21 | 72 | 68 | 85 | 19 | 5.12 | 7.67 | 8.05 | – | – | –
O=C1C(=O)N(CCCCCn2cc(COc3cc(=O)oc4ccccc34)nn2)c2ccccc21 | 65 | 62 | 69 | 9 | – | – | – | – | – | –
O=C1C(=O)N(CCn2cc(COc3cc(=O)oc4ccccc34)nn2)c2ccc(F)cc21 | 80 | 76 | 92 | 26 | 1.99 | 6.67 | 5.41 | 3.55 | – | –
O=C1C(=O)N(CCn2cc(COc3cc(=O)oc4ccccc34)nn2)c2ccc(Br)cc21 | 72 | 65 | 80 | 21 | 6.43 | 10.5 | 8.09 | – | – | –
O=C1C(=O)N(CCCn2cc(COc3cc(=O)oc4ccccc34)nn2)c2ccc([N+](=O)[O-])cc21 | 60 | 52 | 60 | 12 | – | – | – | – | – | –
O=C1C(=O)N(CCCCCn2cc(COc3cc(=O)oc4ccccc34)nn2)c2ccc(F)cc21 | 59 | 56 | 63 | – | – | – | – | – | – | –
O=C1C(=O)N(CCCCn2cc(COc3cc(=O)oc4ccccc34)nn2)c2ccc(Br)cc21 | 59 | 56 | 63 | 13 | – | – | – | – | – | –
O=C1C(=O)N(CCCCn2cc(COc3cc(=O)oc4ccccc34)nn2)c2ccc(Cl)cc21 | 62 | 60 | 71 | 14 | 7.56 | 13.1 | 12.8 | – | – | –
O=C1C(=O)N(CCCCn2cc(COc3cc(=O)oc4ccccc34)nn2)c2ccc([N+](=O)[O-])cc21 | 53 | 45 | 55 | 8 | – | – | – | – | – | –
O=C1C(=O)N(CCCn2cc(COc3cc(=O)oc4ccccc34)nn2)c2ccccc21 | 79 | 75 | 93 | 25 | 5.03 | 5.71 | 5.18 | 6.32 | – | –
O=C1C(=O)N(CCCCCn2cc(COc3cc(=O)oc4ccccc34)nn2)c2ccc(Cl)cc21 | 52 | 48 | 59 | – | – | – | – | – | – | –
O=C1C(=O)N(CCCn2cc(COc3cc(=O)oc4ccccc34)nn2)c2ccc(F)cc21 | 75 | 69 | 86 | 20 | 5.76 | 8.88 | 7.26 | – | – | –
COc1ccc2c(c1)C(=O)C(=O)N2CCCn1cc(COc2cc(=O)oc3ccccc23)nn1 | 52 | 48 | 56 | 9 | – | – | – | – | – | –
O=C1C(=O)N(CCn2cc(COc3cc(=O)oc4ccccc34)nn2)c2ccc([N+](=O)[O-])cc21 | 68 | 59 | 71 | 15 | 8.57 | 13 | 9.54 | – | – | –
O=C1C(=O)N(CCn2cc(COc3cc(=O)oc4ccccc34)nn2)c2ccc(Cl)cc21 | 70 | 76 | 87 | 22 | 5.47 | 8.87 | 5.77 | – | – | –
COc1ccc2c(c1)C(=O)C(=O)N2CCCCn1cc(COc2cc(=O)oc3ccccc23)nn1 | 48 | 41 | 52 | – | – | – | – | – | – | –
O=C1C(=O)N(CCCn2cc(COc3cc(=O)oc4ccccc34)nn2)c2ccc(I)cc21 | 65 | 56 | 67 | 14 | – | – | – | – | – | –
COc1ccc2c(c1)C(=O)C(=O)N2CCCCCn1cc(COc2cc(=O)oc3ccccc23)nn1 | 25 | 19 | 30 | – | – | – | – | – | – | –
O=C1C(=O)N(CCCn2cc(COc3cc(=O)oc4ccccc34)nn2)c2ccc(Br)cc21 | 66 | 61 | 72 | 14 | 7.14 | 13 | 11.5 | – | – | –
CC(=O)O[C@H]1C(=O)[C@@]2(C)[C@H]([C@H](OC(=O)c3ccccc3)[C@]3(O)C[C@H](OC(=O)[C@H](O)[C@@H](NC(=O)c4ccccc4)c4ccccc4)C(C)=C1C3(C)C)[C@]1(OC(C)=O)CO[C@@H]1C[C@@H]2O | – | – | – | – | – | – | – | – | Active | –
O=C1C(=O)N(CCCCCn2cc(COc3cc(=O)oc4ccccc34)nn2)c2ccc([N+](=O)[O-])cc21 | 29 | 23 | 37 | – | – | – | – | – | – | –
O=C1C(=O)N(CCn2cc(COc3cc(=O)oc4ccccc34)nn2)c2ccc(I)cc21 | 70 | 62 | 74 | 17 | 7.01 | 12 | 8.99 | – | – | –
O=C1C(=O)N(CCCCn2cc(COc3cc(=O)oc4ccccc34)nn2)c2ccc(I)cc21 | 57 | 50 | 59 | 10 | – | – | – | – | – | –
O=C1C(=O)N(CCCn2cc(COc3cc(=O)oc4ccccc34)nn2)c2ccc(Cl)cc21 | 68 | 67 | 78 | 18 | 6.99 | 10.7 | 9.66 | – | – | –
COc1ccc2c(c1)C(=O)C(=O)N2CCn1cc(COc2cc(=O)oc3ccccc23)nn1 | 65 | 53 | 68 | 14 | – | – | – | – | – | –
O=C1C(=O)N(CCn2cc(COc3cc(=O)oc4ccccc34)nn2)c2ccccc21 | 87 | 80 | 98 | 28 | 0.73 | 3.45 | 3.04 | 1.06 | – | Active
O=C1C(=O)N(CCCCCn2cc(COc3cc(=O)oc4ccccc34)nn2)c2ccc(I)cc21 | 36 | 30 | 45 | – | – | – | – | – | – | –
